The conditions of data set [1]: pH conditions and gut esterases; cited from earlier work.
In data set [2] the test system is moderate‐to‐severe psoriasis. As to conditions: phase III trial (BRIDGE); both P < .001; cited from earlier work.
Another data set relates to CYP3A4/5. The data set can be described thus: CYP3A4/5 inhibition in human liver microsomes. In kind it is biochemical. As to conditions: for IC50 at 10 min / inhibition at 10 min, 666 μmol/L: human, human liver microsomes; for inhibition at 10 min, 666 μmol/L: probe testosterone, Inhibition of formation of 6β‐hydroxytestosterone, Mean, testosterone. On the technique in general: Liver microsomes are vesicles of endoplasmic reticulum, rich in cytochrome P450 enzymes.

Data set [3] has as its target T1, P‐gp (Homo sapiens, UniProt P08183). Kind of data set: P-gp inhibition, [3H]digoxin efflux in Caco-2 cells. As to conditions: for % Control relative to 0 mmol/L MMF: Caco‐2 cells, [^3H]digoxin efflux ratio. On the technique in general: Caco-2 cells form a polarised layer with tight junctions and transporters.
In data set [4] the target is T1, P‐gp. Kind of data set: P-gp inhibition, [3H]digoxin efflux in MDCKII-MDR1 and MDCKII-WT cells. As to conditions: for % Control relative to 0 mmol/L MMF: MDCKII cells, [^3H]digoxin net efflux ratio.
Data set [5] can be described thus: Preliminary metabolic stability in HLM. In kind it is in vitro ADME, human. As to conditions: with and without cofactor, 37°C, 0-40 minutes, MMF at 750 μmol/L.
The nature of data set [6]: Permeability across Caco-2 cell monolayers. In kind it is in vitro ADME. The note with it: human, Caco-2, pH 7.4.
A further data set has as its target CYP2C9 (Homo sapiens, UniProt P11712). The data set can be described thus: CYP2C9 inhibition in human liver microsomes. In kind it is biochemical.
For the next data set, the system named is CYP2B6 mRNA. Kind of data set: CYP2B6 mRNA induction in cultured human hepatocytes. In kind it is cell-based.
For data set [7], the target named is T1, P‐gp. Kind of data set: P-gp substrate assessment in MDCKII-MDR1 and WT MDCKII cells. As to conditions: MMF; at 120 minutes; all concentrations investigated. In kind it is in vitro ADME.
Another data set deals with T2, CYP1A2 (Homo sapiens, UniProt P05177).
T2 sequence (P05177 1-516): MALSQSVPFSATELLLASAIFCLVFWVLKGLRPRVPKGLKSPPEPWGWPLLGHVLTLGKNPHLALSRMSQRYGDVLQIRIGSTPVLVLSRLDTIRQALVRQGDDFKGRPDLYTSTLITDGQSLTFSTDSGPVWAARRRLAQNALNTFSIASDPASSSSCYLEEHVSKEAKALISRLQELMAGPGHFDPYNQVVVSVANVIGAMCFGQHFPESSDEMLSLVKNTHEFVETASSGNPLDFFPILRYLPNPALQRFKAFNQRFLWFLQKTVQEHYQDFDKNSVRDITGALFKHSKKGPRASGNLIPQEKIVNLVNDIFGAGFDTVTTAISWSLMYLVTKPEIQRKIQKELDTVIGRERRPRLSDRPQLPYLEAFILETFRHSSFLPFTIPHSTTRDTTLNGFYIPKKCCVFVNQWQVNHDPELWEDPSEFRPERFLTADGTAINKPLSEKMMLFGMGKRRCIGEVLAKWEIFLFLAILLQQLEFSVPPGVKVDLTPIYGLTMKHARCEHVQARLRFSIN
Kind of data set: CYP1A2 inhibition in human liver microsomes. In kind it is biochemical.

For data set [8] the following is noted: read-out: maximum plasma concentration (Cmax) of MMF; for a 240 mg dose; clinically relevant; cited from earlier work.
Data set [9] can be described thus: MMF concentration in incubation medium. In kind it is in vitro ADME. As to conditions: no‐cell control plate; after 24 hours’ incubation.
Data set [10] is described as follows: Preliminary solubility in potassium phosphate buffer with HLM. In kind it is physicochemical. As to conditions: MMF in solutions of HLM at 0.025 and 0.3 mg/mL.
The target in the next data set is T3, CYP2B6 (Homo sapiens, UniProt P20813).
T3 sequence (P20813 1-491): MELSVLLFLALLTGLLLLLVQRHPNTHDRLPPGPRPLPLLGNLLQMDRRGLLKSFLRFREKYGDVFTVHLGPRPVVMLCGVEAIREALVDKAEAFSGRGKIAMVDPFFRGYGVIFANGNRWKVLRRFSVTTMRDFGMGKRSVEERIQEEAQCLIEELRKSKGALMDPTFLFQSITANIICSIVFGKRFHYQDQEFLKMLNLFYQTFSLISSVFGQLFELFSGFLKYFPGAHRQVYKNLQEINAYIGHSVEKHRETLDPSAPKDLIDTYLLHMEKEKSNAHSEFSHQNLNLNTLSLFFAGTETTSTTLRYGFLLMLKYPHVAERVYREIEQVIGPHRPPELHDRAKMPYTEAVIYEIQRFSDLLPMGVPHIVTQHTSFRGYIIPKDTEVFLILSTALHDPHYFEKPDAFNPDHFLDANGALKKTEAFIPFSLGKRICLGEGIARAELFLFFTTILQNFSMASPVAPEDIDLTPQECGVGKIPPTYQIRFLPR
The data set can be described thus: CYP2B6 inhibition in human liver microsomes. In kind it is biochemical.

For the next data set, the target named is CYP2D6 (Homo sapiens, UniProt P10635). The data set can be described thus: CYP2D6 inhibition in human liver microsomes. In kind it is biochemical.
Chain of CYP2D6 (P10635 whole entry): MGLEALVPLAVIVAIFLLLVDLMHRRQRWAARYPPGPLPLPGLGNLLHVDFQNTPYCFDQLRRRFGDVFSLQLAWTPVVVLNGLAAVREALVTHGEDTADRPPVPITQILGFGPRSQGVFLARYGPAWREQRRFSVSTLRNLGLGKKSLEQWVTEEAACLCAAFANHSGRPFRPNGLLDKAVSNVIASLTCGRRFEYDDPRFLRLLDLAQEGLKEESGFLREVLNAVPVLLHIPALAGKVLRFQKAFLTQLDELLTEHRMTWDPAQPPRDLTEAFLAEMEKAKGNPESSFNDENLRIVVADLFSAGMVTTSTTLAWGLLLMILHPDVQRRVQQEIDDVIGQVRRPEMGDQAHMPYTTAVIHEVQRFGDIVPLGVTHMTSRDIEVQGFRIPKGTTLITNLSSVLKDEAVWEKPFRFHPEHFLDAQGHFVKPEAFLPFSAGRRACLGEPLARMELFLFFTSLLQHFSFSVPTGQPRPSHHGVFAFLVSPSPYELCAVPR
A short description of data set [11]: MMF solubility in supplemented Williams' Medium E. In kind it is physicochemical. As to conditions: MMF up to 750 μmol/L.
The target in another data set is CYP2C19 (Homo sapiens, UniProt P33261). The data set can be described thus: CYP2C19 inhibition in human liver microsomes. In kind it is biochemical.
Chain of CYP2C19 (P33261 whole entry): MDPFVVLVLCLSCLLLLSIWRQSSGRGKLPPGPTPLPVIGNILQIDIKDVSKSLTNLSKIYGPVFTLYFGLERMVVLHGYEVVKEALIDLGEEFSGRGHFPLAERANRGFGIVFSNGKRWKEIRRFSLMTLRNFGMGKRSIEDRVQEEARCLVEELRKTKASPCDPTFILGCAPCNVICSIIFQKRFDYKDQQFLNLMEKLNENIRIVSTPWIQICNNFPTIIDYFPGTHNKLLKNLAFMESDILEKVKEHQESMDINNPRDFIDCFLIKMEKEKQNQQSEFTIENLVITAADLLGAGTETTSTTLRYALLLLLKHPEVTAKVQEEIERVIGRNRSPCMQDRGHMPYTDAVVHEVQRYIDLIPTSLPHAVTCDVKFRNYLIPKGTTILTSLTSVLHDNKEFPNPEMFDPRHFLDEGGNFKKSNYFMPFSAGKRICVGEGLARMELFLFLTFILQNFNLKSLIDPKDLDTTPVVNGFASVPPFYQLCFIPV
A further data set has as its system CYP3A4 mRNA. The data set can be described thus: CYP3A4 mRNA induction in cultured human hepatocytes. In kind it is cell-based.
A further data set relates to human hepatocytes. Kind of data set: Cytotoxicity in cultured human hepatocytes. As to conditions: MMF ≤250 μmol/L; 72‐hour incubation. In kind it is cell-based.
Data set [12] can be described thus: Cytotoxicity in cultured human hepatocytes. In kind it is cell-based. The note with it: human, cryopreserved plated human hepatocytes.
The test system of another data set is CYP1A2 mRNA. Kind of data set: CYP1A2 mRNA induction in cultured human hepatocytes. In kind it is cell-based.
The next data set concerns the target T4, CYP2C8 (Homo sapiens, UniProt P10632).
T4 sequence (P10632 1-490): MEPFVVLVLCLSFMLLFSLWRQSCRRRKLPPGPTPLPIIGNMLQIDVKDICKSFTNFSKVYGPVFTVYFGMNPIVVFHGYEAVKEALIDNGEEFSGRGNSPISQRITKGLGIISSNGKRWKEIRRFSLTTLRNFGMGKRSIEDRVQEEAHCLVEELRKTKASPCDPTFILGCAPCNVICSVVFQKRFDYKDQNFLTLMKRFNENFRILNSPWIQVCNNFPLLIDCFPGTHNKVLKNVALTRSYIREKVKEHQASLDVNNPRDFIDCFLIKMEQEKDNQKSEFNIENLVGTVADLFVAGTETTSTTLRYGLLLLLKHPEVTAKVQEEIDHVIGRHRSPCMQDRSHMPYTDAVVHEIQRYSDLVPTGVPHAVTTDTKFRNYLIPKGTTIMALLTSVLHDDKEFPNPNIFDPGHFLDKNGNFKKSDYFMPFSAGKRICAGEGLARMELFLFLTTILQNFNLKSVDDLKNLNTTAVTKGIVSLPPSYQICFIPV
Kind of data set: CYP2C8 inhibition in human liver microsomes. In kind it is biochemical.

This is an account of results in paper PMC6887663 (Pharmacology Research & Perspectives, 2019).

T1 sequence (P08183 whole entry): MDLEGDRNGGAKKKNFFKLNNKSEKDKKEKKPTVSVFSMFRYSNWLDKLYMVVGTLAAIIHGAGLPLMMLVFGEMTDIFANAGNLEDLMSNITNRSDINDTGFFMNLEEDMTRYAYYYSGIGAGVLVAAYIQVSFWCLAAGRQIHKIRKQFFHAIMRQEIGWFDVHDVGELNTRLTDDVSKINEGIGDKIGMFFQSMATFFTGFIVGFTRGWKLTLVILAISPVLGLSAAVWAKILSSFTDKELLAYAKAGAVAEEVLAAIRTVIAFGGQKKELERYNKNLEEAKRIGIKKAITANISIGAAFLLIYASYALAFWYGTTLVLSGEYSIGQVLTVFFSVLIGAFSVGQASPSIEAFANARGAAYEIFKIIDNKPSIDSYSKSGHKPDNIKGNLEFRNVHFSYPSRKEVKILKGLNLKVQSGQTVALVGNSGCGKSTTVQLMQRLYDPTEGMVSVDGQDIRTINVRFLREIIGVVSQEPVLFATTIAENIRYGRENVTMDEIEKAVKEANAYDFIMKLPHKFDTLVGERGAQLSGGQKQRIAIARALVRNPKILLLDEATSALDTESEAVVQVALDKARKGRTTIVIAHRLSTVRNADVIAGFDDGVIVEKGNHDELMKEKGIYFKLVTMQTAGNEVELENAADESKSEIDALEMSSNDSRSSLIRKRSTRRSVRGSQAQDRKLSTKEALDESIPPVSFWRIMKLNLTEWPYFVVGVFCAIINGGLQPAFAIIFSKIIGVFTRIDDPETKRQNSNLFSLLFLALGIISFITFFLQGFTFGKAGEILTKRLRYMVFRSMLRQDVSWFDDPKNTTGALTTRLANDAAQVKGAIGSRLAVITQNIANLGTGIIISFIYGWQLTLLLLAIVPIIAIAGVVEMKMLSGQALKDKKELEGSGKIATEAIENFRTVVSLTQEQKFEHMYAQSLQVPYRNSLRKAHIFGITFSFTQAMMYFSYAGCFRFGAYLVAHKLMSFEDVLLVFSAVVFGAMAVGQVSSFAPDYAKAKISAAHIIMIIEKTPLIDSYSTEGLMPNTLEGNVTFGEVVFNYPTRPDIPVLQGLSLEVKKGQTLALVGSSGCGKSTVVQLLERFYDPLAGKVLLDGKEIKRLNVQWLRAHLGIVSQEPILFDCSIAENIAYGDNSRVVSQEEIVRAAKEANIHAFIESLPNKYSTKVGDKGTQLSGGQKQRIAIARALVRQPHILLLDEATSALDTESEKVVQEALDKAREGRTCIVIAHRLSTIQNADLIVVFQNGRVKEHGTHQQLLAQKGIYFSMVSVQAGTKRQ
Chain of CYP2C9 (P11712 whole entry): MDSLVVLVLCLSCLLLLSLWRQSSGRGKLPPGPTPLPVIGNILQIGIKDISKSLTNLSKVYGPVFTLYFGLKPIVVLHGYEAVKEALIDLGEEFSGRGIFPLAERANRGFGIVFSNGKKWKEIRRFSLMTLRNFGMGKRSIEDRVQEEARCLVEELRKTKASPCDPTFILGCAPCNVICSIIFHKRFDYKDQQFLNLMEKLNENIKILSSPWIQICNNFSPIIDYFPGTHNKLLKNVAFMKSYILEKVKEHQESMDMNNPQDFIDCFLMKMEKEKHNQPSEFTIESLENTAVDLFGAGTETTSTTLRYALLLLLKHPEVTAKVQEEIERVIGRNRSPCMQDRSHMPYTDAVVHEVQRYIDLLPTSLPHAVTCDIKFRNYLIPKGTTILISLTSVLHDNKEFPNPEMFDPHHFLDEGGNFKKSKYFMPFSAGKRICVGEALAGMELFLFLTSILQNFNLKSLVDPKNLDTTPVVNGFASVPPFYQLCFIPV

With `COC(=O)/C=C/C(=O)OC` [DMF, dimethylfumarate], the “hydrolysis half‐life of DMF in the intestine” value in data set [1] is recorded as “less than 2 minutes”. Also, the “number of patients with PASI 75 at Week 16” value in [2] is “superiority over placebo and noninferiority versus the FAE combination”. The “Inhibition of formation of 1′‐hydroxymidazolam, Mean” value in the data set on CYP3A4/5 (DMF 666 μmol/L, 30 min PI + cofactor, midazolam, HLM) is reported as 8.93%. In addition, the IC50 at 10 min with CYP3A4/5 was greater than 666 µM. Also, the inhibition at 10 min, 666 μmol/L is 0% in the data set with CYP3A4/5 (DMF 666 μmol/L, 0 min PI, HLM); 35.5% with CYP3A4/5 (DMF 666 μmol/L, 30 min PI + cofactor, HLM); 0% in the data set on CYP3A4/5 (DMF 666 μmol/L, 30 min PI – cofactor, HLM). The concentration for half-maximal inhibition (IC50) against P‐gp [3] was 1500 µM; against P‐gp [4] it was 900 µM. Moreover, the “metabolic stability under the incubation conditions” value in data set [5] is on record as “unlikely to be stable”.
Turning to `COC(=O)/C=C/C(=O)O` [MMF, monomethylfumarate], the Papp A→B at 120 min in [6] was less than 2 ×10⁻⁶ cm/s. Also, the IC50 at CYP2C9, on CYP1A2, against CYP2B6, against CYP2D6, against CYP2C19 and against CYP2C8 was greater than 750 µM in each case. Besides, the “fold increase in CYP2B6 mRNA” value with CYP2B6 mRNA (250 μmol/L MMF, donor 4) is 17.6 fold. Further, the “CYP2B6 mRNA induction, overall” value with CYP2B6 mRNA (MMF 1‐250 µmol/L, three donors) is “No concentration‐dependent induction effects”. The net efflux ratio at P‐gp [7] is less than 2. Besides, the Cmax in [8] is 11.2 µM. Further, in [9], the “MMF still present in medium” value is “over 65%”. Further, the “mean recovery upon centrifugation” value in [10] is recorded as greater than 92.2%. Further, the IC50 at 10 min with CYP3A4/5 is greater than 750 µM. Besides, the “Post‐centrifugation recoveries” value in [11] is no less than 86.5%. Further, the “fold increase in CYP3A4 mRNA” value with CYP3A4 mRNA (1 µmol/L MMF, donor 2 (XKU), not concentration dependent) is on record as greater than 2 fold. The “CYP3A4 mRNA induction, overall” value in the data set on CYP3A4 mRNA (MMF at concentrations up to 250 μmol/L) is on record as “no concentration‐dependent increases above 2‐fold”. For the same compound, the “cytotoxic effects on human hepatocytes” value in the data set with human hepatocytes is given as “No significant cytotoxic effects”. In [12], this compound had a viability at 72 h, 750 μmol/L of 71.6%. In the data set on CYP1A2 mRNA (250 μmol/L MMF, donor 4), the “fold increase in CYP1A2 mRNA” value was 4.78 fold. Besides, the “CYP1A2 mRNA induction, overall” value in the data set on CYP1A2 mRNA (MMF 1‐250 µmol/L, three donors) was “No concentration‐dependent induction effects”. Moreover, on P‐gp [3] (7.38 mmol/L MMF, Caco‐2), the “decrease of [^3H]digoxin efflux ratio” value is “approximately 85%”. In addition, the “fold increase of Papp for [^3H]digoxin in the A–B direction” value at P‐gp [3] (7.38 mmol/L MMF, Caco‐2, possibly cytotoxicity) was “approximately 9 fold”. Moreover, the “% Control relative to 0 mmol/L MMF” value at P‐gp [3] (MMF 0.0738 mmol/L) was 76.9%; at P‐gp [3] (MMF 0.246 mmol/L) it was 76.7%; at P‐gp [3] (MMF 0.738 mmol/L), 99.8%; on P‐gp [3] (MMF 7.38 mmol/L), 14.5%; on P‐gp [4] (MMF 0.246 mmol/L), greater than 69.4%; on P‐gp [4] (MMF 0.738 mmol/L) it was greater than 88.2%. The “% Control relative to 0 mmol/L MMF” value at P‐gp [4] (MMF 7.38 mmol/L) is on record as greater than 138%. Further, the “metabolic stability under the incubation conditions” value in [5] is listed as “stable”.

The term IC50 denotes the concentration that gives 50% inhibition. Low values mean inhibition by little substance, high ones a need for much substance. What is called inhibition is the share of the control response that was lost under treatment. The term Papp A→B denotes how fast a substance crosses the layer from the apical side. Higher therefore signals ready permeation. A word on the viability: it is the share of living cells, or the viability signal relative to a control.
